We go through one substance from US12285435B2, “Multivesicular liposome formulations of dexamethasone” (Pacira Pharmaceuticals, Inc., priority 2021, dated 2025).

The nature of data set [1]: Pharmacokinetic study of subcutaneous DSP-MVL formulations vs bolus DSP in rats (dexamethasone plasma levels). Type of data set: in vivo. The conditions noted are these: rat. The protocol: Pharmacokinetic (PK) studies of the subcutaneous dosing of DSP discussed herein were performed on rats where bolus DSP was compared to various formulations of DSP-MVLs at doses between 1.0 to 3.5 mg/kg for rats and at 0.5 mg/kg for beagles. Formulations 3AA, 5AA, 8AA, 11AA, 14AA, 4B, and 1C were diluted to 19-20% PPV from the initial PPV of about 30-45% with a final DSP concentration of approximately about 3 mg/mL to 3.5 mg/mL. Formulations 47-49 were not diluted, and the DSP concentration in the final product was approximately 7 mg/mL. In addition, PK studies of Formulation 18AA were performed on beagles through subcutaneous and epidural dosing of DSP of about 0.5 mg/kg.
Plasma samples were collected at different times points (0, 24, 48, 72, 96, 120, 144 and 168 hours post dose) for analysis. Blood samples were collected via the right saphenous vein using a 19-gauge needle prick or cardiac puncture for the final time point, placed into chilled tubes containing the appropriate anticoagulant, inverted several times to mix, protected from light, and kept on ice until centrifugation. A summary of the data in FIG. 1-6 is set forth below in Tables 1-2. For the rat studies, Cumulative % AUC is expressed as a percentage of the total AUC obtained in animals administered with Free DSP. For the dog studies, Cumulative % AUC is expressed as a percentage of the total AUC for each dog.
FIG. 1 is a line chart illustrating the dose normalized dexamethasone plasma levels obtained in rats as a function of time, following administration of several DSP-MVL formulations varying in internal pH (Formulations 47-49) as compared to DSP in a saline solution (“Free DSP Solution” Formulation).
FIG. 4 is a line chart illustrating the dose normalized dexamethasone plasma level obtained in rats as a function of time, following administration of two DSP-MVL formulations with and without triolein (Formulations 5AA and 3AA).
FIG. 5 is a line chart illustrating the dose normalized dexamethasone plasma levels obtained in rats as a function of time, following administration of several DSP-MVL formulations varying in lipid component concentrations (Formulations 4B and 1C).

The conditions of data set [2]: DSP, rapid absorption into the blood stream; cited from earlier work.
[3] abbreviates: percentage of the total AUC obtained in animals administered with Free DSP.

A word on the Tmax: it is the time from dosing to the highest level. In the case of “dexamethasone sodium phosphate [Free DSP]”, the Tmax in data set [1] is 1 h. For the same substance, in data set [1] (dose normalized), the AUC/dose was 1182 ng·h/mL/mg/kg. Further, in data set [1] (setting [3]), the “Cumulative AUC % at 7 days” value is given as 100% and the “Cumulative AUC % at 14 days” value was 100%. In data set [2], the plasma half-life was roughly 3.33 h.
